Reference: US12122785B2, “Substituted pyridines, pyridazines, pyrimidines, and 1,2,4-triazines as TYK2 inhibitors” (Sudo Biosciences Limited, priority 2021, dated 2024)

Columns and labels:
Assay type in all cases: cell-based
[1] = test system: TYK2 pseudokinase (JH2); IL-23-stimulated HEK-Blue IL-23 cells; assay: HEK-Blue IL-23 reporter assay (STAT3-inducible SEAP) for profiling TYK2 pseudokinase (JH2) inhibition; conditions: 10 ng/mL human recombinant IL-23, SEAP readout, read-out: IL23 (TYK2 inhibitory activity, IC50)
Procedure: (§1) Example B-1: HEK-Blue™ IL-23 and IFNα/β Reporter Assays for Profiling TYK2 Pseudokinase (JH2) Inhibition
(§2) HEK-Blue™ IL-23 and IFNα/β cells with a stably-integrated cytokine receptor and STAT3 or STAT1 express STAT-inducible secreted embryonic alkaline phosphatase (SEAP) reporter gene upon cytokine stimulation. These cells are plated in DMEM (Gibco) containing 10% heat-inactivated FBS (Gibco) and 100 U/mL PenStrep (Gibco) at 37° C. under 5% CO2 conditions for 20-22 hours. The cells are then pretreated with serially diluted test compounds for 60 min prior to stimulation with either 10 ng/mL human recombinant IL-23 (Miltenyl Biotech) or 1 ng/mL human recombinant IFNα (InvivoGen) for 22-24 hours for IL-23 or 16-18 h for IFNα. SEAP induction is measured using the QUANTI Blue™ Solution (InvivoGen) according to the manufacturer's instructions.

[2] = test system: TYK2 pseudokinase (JH2); IFNα-stimulated HEK-Blue IFNα/β cells; assay: HEK-Blue IFNα/β reporter assay (STAT1-inducible SEAP) for profiling TYK2 pseudokinase (JH2) inhibition; conditions: 1 ng/mL human recombinant IFNα, SEAP readout, read-out: IFNα (TYK2 inhibitory activity, IC50)
Procedure: as §1, §2

[3] = test system: IL-2-stimulated HEK-Blue IL-2 reporter cells; assay: HEK-Blue IL-2 reporter assay (STAT5-inducible SEAP) for determining selectivity; conditions: 4 ng/mL human recombinant IL-2, 24 hours
Procedure: (§3) Example B-3: HEK-Blue™ IL-2 and IFNγ Reporter Assays for Determining Selectivity
(§4) HEK-Blue™ IL-2 and IFNγ reporter cells with a stably-integrated cytokine receptor and STAT5 or STAT1 express STAT-inducible secreted embryonic alkaline phosphatase (SEAP) reporter gene upon cytokine stimulation. These cells were plated in DMEM (Gibco) containing 10% heat-inactivated FBS (Gibco) and 100 U/mL PenStrep (Gibco) at 37° C. under 5% CO2 conditions for 20-22 hours. The cells were then pretreated with serially diluted test compounds for 60 min prior to stimulation with either 4 ng/mL human recombinant IL-2 (Miltenyl Biotech) or 50 ng/mL human recombinant IFNγ (InvivoGen) for 24 hours. SEAP induction was measured using the QUANTI-Blue™ Solution (InvivoGen) according to the manufacturer's instructions.

[4] = test system: IFNγ-stimulated HEK-Blue IFNγ reporter cells; assay: HEK-Blue IFNγ reporter assay (STAT1-inducible SEAP) for determining selectivity; conditions: 50 ng/mL human recombinant IFNγ, 24 hours, read-out: IFN-γ SEAP selectivity assay IC50
Procedure: as §3, §4

Compound	IC50 [1] [µM]	IC50 [2] [µM]	IC50 [3] [µM]	IC50 [4] [µM]
[2H]C([2H])([2H])NC(=O)c1nnc(N(C)C(=O)C2CC2)cc1Nc1nccc2c1N(C)C([2H])([2H])c1cn(C)nc1-2 [Compound 62, 4-((2,5-dimethyl-4,5-dihydro-2H-pyrazolo[4,3-c][1,7]naphthyridin-6-yl-4,4-d2)amino)-N-(methyl-d3)-6-(N-methylcyclopropanecarboxamido)pyridazine-3-carboxamide]	< 0.03	0.03 to 0.3		
[2H]C([2H])([2H])NC(=O)c1cnc(NC(=O)C2CC2)cc1Nc1cccc2c1N(C)C([2H])([2H])c1cc(C)nn1-2 [Compound 57, 6-(cyclopropanecarboxamido)-4-((2,5-dimethyl-4,5-dihydropyrazolo[1,5-a]quinoxalin-6-yl-4,4-d2)amino)-N-(methyl-d3)nicotinamide]	< 0.03	< 0.03	> 1	0.03 to 0.3
[2H]C([2H])([2H])NC(=O)c1cnc(NC(=O)C2CC2)cc1Nc1cccc2c1N(C)Cc1cc(C)nn1-2 [Compound 53, 6-(cyclopropanecarboxamido)-4-((2,5-dimethyl-4,5-dihydropyrazolo[1,5-a]quinoxalin-6-yl)amino)-N-(methyl-d3)nicotinamide]	< 0.03	< 0.03	> 1	0.03 to 0.3
[2H]C([2H])([2H])NC(=O)c1nnc(NC(=O)C2CC2)cc1Nc1cccc2c1N(C)C([2H])([2H])c1ccnn1-2 [Compound 58, 6-(cyclopropanecarboxamido)-N-(methyl-d3)-4-((5-methyl-4,5-dihydropyrazolo[1,5-a]quinoxalin-6-yl-4,4-d2)amino)pyridazine-3-carboxamide]	< 0.03	< 0.03	> 1	0.3 to 1
CNC(=O)c1nnc(NC(=O)C2CC2)cc1Nc1cccc2c1OC(C)c1cn(C)nc1-2 (centres unmarked) [Compound 10, 6-(cyclopropanecarboxamido)-4-((2,4-dimethyl-2,4-dihydrochromeno[4,3-c]pyrazol-6-yl)amino)-N-methylpyridazine-3-carboxamide]	0.03 to 0.3	> 1		
[2H]C([2H])([2H])NC(=O)c1nnc(NC(=O)NC)cc1Nc1nccc2c1N(C)[C@@H](C)c1cn(C)nc1-2 (single isomer, unassigned) [Compound 80]	< 0.03	< 0.03	> 1	> 1
[2H]C([2H])([2H])NC(=O)c1nnc(NC(=O)C2CC2)cc1Nc1cccc2c1N(C)C([2H])([2H])c1cc(C)nn1-2 [Compound 56, 6-(cyclopropanecarboxamido)-4-((2,5-dimethyl-4,5-dihydropyrazolo[1,5-a]quinoxalin-6-yl-4,4-d2)amino)-N-(methyl-d3)pyridazine-3-carboxamide]	< 0.03	< 0.03	> 1	0.03 to 0.3
[2H]C([2H])([2H])NC(=O)c1cnc(NC(=O)C2CC2)cc1Nc1nccc2c1N(C)C([2H])([2H])c1cc(C)nn1-2 [Compound 76, 6-(cyclopropanecarboxamido)-4-((2,5-dimethyl-4,5-dihydropyrazolo[1,5-a]pyrido[3,4-e]pyrazin-6-yl-4,4-d2)amino)-N-(methyl-d3)nicotinamide]	< 0.03	< 0.03	> 1	0.3 to 1
[2H]C([2H])([2H])NC(=O)c1cnc(NC(=O)C2CC2)cc1Nc1cccc2c1N(C)Cc1cn(C(C)C)nc1-2 [Compound 37, 6-(cyclopropanecarboxamido)-4-((2-isopropyl-5-methyl-4,5-dihydro-2H-pyrazolo[4,3-c]quinolin-6-yl)amino)-N-(methyl-d3)nicotinamide]	< 0.03	0.03 to 0.3		
[2H]C([2H])([2H])NC(=O)c1cnc(NC(=O)C2CC2)cc1Nc1cccc2c1N(C)Cc1cc(C(F)(F)F)nn1-2 [Compound 55, 6-(cyclopropanecarboxamido)-N-(methyl-d3)-4-((5-methyl-2-(trifluoromethyl)-4,5-dihydropyrazolo[1,5-a]quinoxalin-6-yl)amino)nicotinamide]	0.03 to 0.3	0.3 to 1		
[2H]C([2H])([2H])NC(=O)c1nnc(NC(=O)C2CC2)cc1Nc1nccc2c1N(C)[C@H](C)c1cc(C)nn1-2 [Compound 81, (R)-6-(cyclopropanecarboxamido)-N-(methyl-d3)-4-((2,4,5-trimethyl-4,5-dihydropyrazolo[1,5-a]pyrido[3,4-e]pyrazin-6-yl)amino)pyridazine-3-carboxamide]	< 0.03	< 0.03		
[2H]C([2H])([2H])NC(=O)c1nnc(NC(=O)C2CC2)cc1Nc1nccc2c1N(C)C([2H])([2H])c1cn(C)nc1-2 [Compound 72, 6-(cyclopropanecarboxamido)-4-((2,5-dimethyl-4,5-dihydro-2H-pyrazolo[4,3-c][1,7]naphthyridin-6-yl-4,4-d2)amino)-N-(methyl-d3)pyridazine-3-carboxamide]	< 0.03		0.3 to 1	
[2H]C([2H])([2H])NC(=O)c1cnc(NC(=O)C2COC2)cc1Nc1cccc2c1N(C)Cc1cn(C)nc1-2 [Compound 24, 4-((2,5-dimethyl-4,5-dihydro-2H-pyrazolo[4,3-c]quinolin-6-yl)amino)-N-(methyl-d3)-6-(oxetane-3-carboxamido)nicotinamide]	0.03 to 0.3	0.03 to 0.3		
[2H]C([2H])([2H])NC(=O)c1cnc(NC(=O)C2CC2)cc1Nc1cccc2c1N(C)[C@H](C)c1cn(C)nc1-2 (single isomer, unassigned) [Compound 31]	< 0.03	0.03 to 0.3		
[2H]C([2H])([2H])NC(=O)c1nnc(NC(=O)C2CC2)cc1Nc1cccc2c1N(C)Cc1cn(C(C)C)nc1-2 [Compound 91, 6-(cyclopropanecarboxamido)-4-((2-isopropyl-5-methyl-4,5-dihydro-2H-pyrazolo[4,3-c]quinolin-6-yl)amino)-N-(methyl-d3)pyridazine-3-carboxamide]	< 0.03	0.03 to 0.3		
[2H]C([2H])([2H])NC(=O)c1nnc(NC(=O)C2CC2)cc1Nc1cccc2c1N(C)Cc1cc(C(F)(F)F)nn1-2 [Compound 54, 6-(cyclopropanecarboxamido)-N-(methyl-d3)-4-((5-methyl-2-(trifluoromethyl)-4,5-dihydropyrazolo[1,5-a]quinoxalin-6-yl)amino)pyridazine-3-carboxamide]	0.03 to 0.3	0.3 to 1		
[2H]C([2H])([2H])NC(=O)c1nnc(NC(=O)C2CC2)cc1Nc1nccc2c1N(C)[C@@H](C)c1cn(C)nc1-2 (single isomer, unassigned) [Compound 69]	0.03 to 0.3	0.03 to 0.3		
[2H]C([2H])([2H])NC(=O)c1nnc(NC(=O)NC)cc1Nc1nccc2c1N(C)[C@H](C)c1cn(C)nc1-2 (single isomer, unassigned) [Compound 78]	0.03 to 0.3	0.3 to 1		
CNC(=O)c1nnc(Nc2ccc(F)cn2)cc1Nc1cccc2c1OC(C)c1cn(C)nc1-2 (centres unmarked) [Compound 11, 4-((2,4-dimethyl-2,4-dihydrochromeno[4,3-c]pyrazol-6-yl)amino)-6-((5-fluoropyridin-2-yl)amino)-N-methylpyridazine-3-carboxamide]	0.03 to 0.3	> 1		
